Experimental data reported in patent publication US11548885B2, “NLRX1 ligands” (Landos Biopharma, Inc., priority 2020, dated 2023).

Key:
[1] = tested on: mice challenged with MOG emulsion; test: MOG35-55 induced experimental autoimmune encephalomyelitis model; assay type: in vivo, C57BL6 mice; conditions: oral 20 mg/kg daily
[2] = tested on: OVA-induced model; test: OVA-induced model of experimental asthma; assay type: in vivo, C57BL6 mice; conditions: oral 20 mg/kg daily days 14-17, day 18, flow cytometry
Procedure: OVA-induced model. C57BL6 mice were immunized with 10 μg of ovalbumin (OVA) in aluminum hydroxide gel by intraperitoneal injection on day 0 and 7 of the experiment. Mice were then exposed to OVA (8% w/v) by aerosolization for 25 minutes daily between days 14 and 17. Treatment with NX-64-3 (20 mg/kg) or vehicle control occurred daily between days 14 and 17 by oral gavage. Dosage was calculated based off mean body weights. Immunological analysis. Lungs were collected on day 18. Lung tissue was minced and digested in RPMI supplemented with FBS, HEPES, and calcium chloride containing 300 U/mL collagenase and 50 U/mL DNase for 45 minutes at 37° C. After filtration, red blood cells were lysed. Cells were labeled with mixtures of extracellular (CD45, CD3, CD4, CD8, MHCII, CD11b, CD11c, SiglecF, Ly6C) and intracellular (IL10) antibodies in a sequential live staining in 96-well plates in preparation for flow cytometry. Data was captured on a BD FACS Celesta and analyzed using FACSDiva.

[3] = tested on: CD4+ T cells; test: Immunological screening in vitro in CD4+ T cells (flow cytometry of TNFα+ and IFNγ+ cells); assay type: cell-based, C57BL/6 mice; conditions: 50 nanomolar, 24 h; for production of TNFα / TNF+ CD4+ T cells: anti-CD3/CD28, PMA and ionomycin last 6 h
From the text: Cell culture. Spleens were excised from C57BL/6 mice. Spleens were crushed between the frosted ends of microscope slides and filtered to provide a cellular suspension. Red blood cells were lysed through hypotonic lysis. Remaining cells were washed and filtered. CD4+ T cells were enriched within the suspension using magnetic sorting based negative selection. Cells were collected and plated within 96 well plates coated with anti-CD3/CD28 and cultured in the presence of NX-64-2, NX-64-3, NX-64-4, NX-64-5, or NX-64-9 at 0 or 50 nanomolar for 24 h. During the last 6 h of culture, cells were stimulated with phorbol 12-myristate-13-acetate (PMA) and ionomycin.
Immunological analysis. Cells were collected from 96 well plates and stained with a cocktail of antibodies for immunophenotyping by flow cytometry. Culture supernatant was collected and assayed for cytokine concentrations by cytometric bead array. Data was captured on a BD FACS Celesta and analyzed using FACSDiva.

[4] = tested on: mice challenged with DSS; test: DSS model of colitis (acute model of IBD); assay type: in vivo; conditions: oral 20 mg/kg once daily
Procedure: DSS model. Mice were given DSS in drinking water for seven days to induce disruption of the epithelial layer. At project initiation, mice were 8 weeks of age and began dosing 24 hours after being placed on DSS. Mice were weighed and scored daily for symptoms of disease (diarrhea, rectal bleeding, rectal inflammation, overall behavior). NX-64-3 was prepared within a 0.5% methylcellulose (12-15 cP) solution. Dosage used was 20 mg/kg delivered once daily. Dosage was calculated based off mean body weights for each gender. Oral dosage was delivered by orogastric gavage of dosage in 0.2 mL volume. Flow Cytometry. Colons were collected into RPMI/FBS buffer containing collagenase (300 U/mL) and DNase (50 U/mL) for digestion. Tissues were digested for 60 minutes under stirring at 37° C. Resultant cellular suspensions were filtered through 100 μm strainers, centrifuged (300×g, 8 min), and washed in fresh RPMI. Following filtration of the resulting single cell suspensions, immune cells were purified by Percoll gradient of cell-containing 40% Percoll overlayed onto 70% Percoll solution. After centrifugation, interphase was collected and washed to obtain enriched colonic lamina propria cell fractions. Cells were labeled with mixtures of extracellular (CD45, CD3, CD4, CD8, CD19, NK1.1, F4/80, CD11b, Gr1) antibodies in a sequential live staining in 96-well plates. […]

[5] = day 18, RNA normalized to beta-actin

SMILES	recovery from neurological deficiencies [1]	expression of II1b in spinal cord [1, 5]	expression of Tnf in spinal cord [1, 5]	disease activity index ([1]; scored 0-4 daily)	percentage of IL10+CD4+ T cells within the lung [2]	percentage of eosinophils within the lung [2]	production of TNFα / TNF+ CD4+ T cells [3]	production of IFNγ / IFNγ+ CD4+ T cells, in words ([3]; relative to vehicle control)	severity of macroscopic lesions (colon) ([4]; 7 days of DSS)	presence of neutrophils in the colonic lamina propria ([4]; day 7, flow cytometry)
O=c1nc(Cc2nc(C3=CCCCO3)no2)[nH]c2ccc(-c3ccc(O)nc3)cc12 [NX-64-3, 2-((3-(3,4-dihydro-2H-pyran-6-yl)-1,2,4-oxadiazol-5-yl)methyl)-6-(6-hydroxypyridin-3-yl)quinazolin-4(1H)-one]	accelerated	reduced	reduced	reduced	increased	reduced	significant reduction	greatest magnitude of response	decreased	decreased
Cn1cc(-c2ccc3[nH]c(Cc4nc(C5=CCCCO5)no4)nc(=O)c3c2)cn1 [NX-64-4, 2-((3-(3,4-dihydro-2H-pyran-6-yl)-1,2,4-oxadiazol-5-yl)methyl)-6-(1-methyl-1H-pyrazol-4-yl)quinazolin-4(1H)-one]							significant reduction			
Cn1cc(-c2ccc3[nH]c(Cc4nc(-c5cc(=O)cc[nH]5)no4)nc(=O)c3c2)cn1 [NX-64-9, 2-((3-(4-oxo-1H-pyridin-2-yl)-1,2,4-oxadiazol-5-yl)methyl)-6-(1-methyl-1H-pyrazol-4-yl)quinazolin-4(1H)-one]							significant reduction			
